“And” between values parts separate entries of the source, which are not always exact repeats. Equal entries are not always repeated. Where two headings read alike, the source gives them in different places.
Tests used:
DENV-2 RL strain [1] = assay: Antiviral assay, viral RNA RT-qPCR, Vero cells; type: cell-based
DENV-1 G4 45AZ5 = assay: DENV-1/45AZ5 antiviral assay RT-qPCR; type: cell-based
Protocol: A total of 20 DENV strains, representing the available genotypes within the four DENV serotypes, were used in the in vitro genotype panel, from which 19 viruses were described previously in ref. [3] and one additional virus, DENV-1/45AZ5 (ref. [54]), was added.
A potential toxic effect on host cells was tested in parallel, while omitting virus infection, using the MTS/PMS method (Promega) for Vero cells, or by high-content imaging for C6/36 cells, as described previously. […] RT–qPCR data were analysed using the QuantStudio 12K Flex software (v.1.2.3) or SDS v.1.2 Applied Biosystems software. Inhibition values for antiviral molecules were plotted using KaleidaGraph plotting software (v.4.03, Synergy Software).

CHIKV S27 = assay: CPE inhibition assay ATPLite, Huh-7; type: cell-based; conditions: Chikungunya virus
hCMV AD169 = assay: microbe, parasite or virus in culture; type: cell-based; conditions: Human betaherpesvirus 5, AD169, MRC5; MRC-5
[2] = system: subgenomic DENV-2/16681 reporter replicon (WT or NS4B mutants); assay: microbe, parasite or virus in culture; type: cell-based; conditions: for FC: fold change of EC50 vs WT
Plasma protein binding = type: in vitro ADME; conditions: rhesus monkey, rhesus macaques
[3] = parameters: method as in earlier work; conditions: healthy volunteers ref 4; cited from earlier work
DENV-2 RL strain [4] = assay: In vivo kinetics study, low viral inoculum (10^2 PFU); conditions: for In vivo kinetics, Mean of Log10: group mean; for In vivo kinetics, Copies/ml / In vivo kinetics, Log10 of Copies/ml: individual mice

## COc1cc(N[C@H](C(=O)c2c[nH]c3ccc(OC(F)(F)F)cc23)c2ccc(Cl)cc2OC)cc(S(C)(=O)=O)c1 [JNJ-1802]
DENV-2 RL strain [1]; Dengue virus, DENV2, Vero, Vero
  EC90: 0.275 ± 0.081 nM
DENV-2 RL strain [1]; Dengue virus, DENV2, Vero, Vero cells, DENV-2RL, EXP1-EXP3, read-out: EC50, single experiments
  EC50: 0.041 nM
DENV-2 RL strain [1]; Dengue virus, DENV2, Vero, Vero cells, DENV-2RL, EXP1-EXP3, read-out: EC90, single experiments
  EC90: 0.19 nM
DENV-2 RL strain [1]; Dengue virus, DENV2, Vero, Vero cells, DENV-2RL, median, read-out: EC50 MEDIAN
  EC50: 0.068 nM
DENV-2 RL strain [1]; Dengue virus, DENV2, Vero, Vero cells, DENV-2RL, median, read-out: EC90 MEDIAN
  EC90: 0.29 nM
DENV-2 RL strain [1]; Dengue virus, DENV2, Vero, Vero, read-out: EC50
  EC50: 0.062 ± 0.019 nM
DENV-2 RL strain [1]; Vero cells, DENV-2RL, EXP1-EXP3, read-out: EC50, single experiments
  EC50: 0.077 nM
DENV-2 RL strain [1]; Vero cells, DENV-2RL, EXP1-EXP3, read-out: EC90, single experiments
  EC90: 0.35 nM
DENV-1 G4 45AZ5; DENV-qPCR-VeroECACC-deltaCt-DENV-1/45AZ5_pre-seeding, single experiments (EXPERIMENT_ID), listed as 64281802-AAA, read-out: EC50 (µM) result_value, DENV-1/45AZ5
  EC50: 0.0016 µM
DENV-1 G4 45AZ5; Dengue virus, DENV1
  EC90: 4.18 ± 0.71 nM
DENV-1 G4 45AZ5; Dengue virus, DENV1, DENV-qPCR-VeroECACC-deltaCt-DENV-1/45AZ5_pre-seeding, mean of 6 results, read-out: EC50 (µM) Mean, DENV-1/45AZ5
  EC50: 0.00152 µM
DENV-1 G4 45AZ5; Dengue virus, DENV1, DENV-qPCR-VeroECACC-deltaCt-DENV-1/45AZ5_pre-seeding, single experiments (EXPERIMENT_ID), read-out: EC50 (µM) result_value, DENV-1/45AZ5
  EC50: 0.0015 µM
CHIKV S27; Huh-7
  EC50: > 25000 nM
CHIKV S27; Huh-7, read-out: EC90, Mean
  EC90: > 25000 nM
hCMV AD169
  EC50: 9000 nM
[2]; Dengue virus, DENV2, NS4B L94F_V91A_T108I replicon SDM210002
  EC50: 2380 nM
[2]; NS4B A222S replicon SDM200008, read-out: EC50
  EC50: 0.35 nM
[2]; NS4B F237Y replicon SDM140022, Huh7 transient, listed as 64281802-AAA, read-out: EC50
  EC50: 7.9 nM and 11 nM and 9.2 nM
[2]; NS4B L94F_V91A_T108I replicon SDM210002, listed as 64281802-AAA
  EC50: 2350 nM and 2290 nM
[2]; NS4B V91A replicon SDM140014, Huh7 transient, listed as 64281802-AAA, read-out: EC50
  EC50: 40 nM and 47 nM and 58 nM and 50 nM
[2]; NS4B V219A replicon SDM200007, listed as 64281802-AAA, read-out: EC50
  EC50: 0.6 nM and 0.52 nM and 0.63 nM and 0.92 nM and 0.78 nM
[2]; WT replicon pFK-sgDVs-R2A-SDM120005, Huh7 transient
  EC50: 0.33 nM
[2]; NS4B A222S, listed as 64281802-AAA
  FC: 1.1 and 1.2 and 0.9 and 1.3 and 1.4
[2]; NS4B F237Y, listed as 64281802-AAA
  FC: 46.0 and 32.0 and 23.0
[2]; NS4B L94F_V91A_T108I, listed as 64281802-AAA
  FC: 3872.3 and 4594.9 and 4248.1
[2]; NS4B M183T, listed as 64281802-AAA
  FC: 1.1 and 1.2 and 1.6 and 1.4
[2]; NS4B S85L, listed as 64281802-AAA
  FC: 3.1 and 3.4 and 3.6 and 4.3 and 4.0
[2]; NS4B T195A, listed as 64281802-AAA
  FC: 2.9 and 3.2 and 2.4 and 3.7 and 3.5
[2]; NS4B V91A, listed as 64281802-AAA
  FC: 232.0 and 190.0 and 127.0 and 176.0
[2]; NS4B V219A, listed as 64281802-AAA
  FC: 1.8 and 1.9 and 1.5 and 1.4
Plasma protein binding
  fraction unbound: < 0.001
[3]
  safety and tolerability in humans: safe and well tolerated
DENV-2 RL strain [4]; 0.2 mg per kg per day b.i.d.
  viral load vs vehicle: No significant reduction in viral load
DENV-2 RL strain [4]; 0.2 mg/kg/d, day 1 p.i.
  In vivo kinetics, Mean of Log10: 2.59 Log10
  In vivo kinetics, Copies/ml: 3.93E+02 Copies/ml
  In vivo kinetics, Log10 of Copies/ml: 2.5940 Log10
DENV-2 RL strain [4]; 0.2 mg/kg/d, day 2 p.i.
  In vivo kinetics, Copies/ml: 3.93E+02 Copies/ml and 5.27E+03 Copies/ml
  In vivo kinetics, Log10 of Copies/ml: 2.5940 Log10 and 3.7220 Log10
DENV-2 RL strain [4]; 0.2 mg/kg/d, day 3 p.i.
  In vivo kinetics, Mean of Log10: 3.28 Log10
  In vivo kinetics, Copies/ml: 7.26E+03 Copies/ml and 3.93E+02 Copies/ml and 6.17E+04 Copies/ml
  In vivo kinetics, Log10 of Copies/ml: 3.8609 Log10 and 2.5940 Log10 and 3.9537 Log10 and 4.7902 Log10
DENV-2 RL strain [4]; 0.2 mg/kg/d, day 4 p.i.
  In vivo kinetics, Mean of Log10: 3.19 Log10
  In vivo kinetics, Copies/ml: 3.93E+02 Copies/ml and 1.02E+04 Copies/ml and 4.96E+03 Copies/ml and 2.86E+03 Copies/ml and 9.30E+03 Copies/ml
  In vivo kinetics, Log10 of Copies/ml: 2.5940 Log10 and 4.0085 Log10 and 3.6952 Log10 and 3.4564 Log10 and 3.9686 Log10
DENV-2 RL strain [4]; 0.2 mg/kg/d, day 5 p.i.
  In vivo kinetics, Mean of Log10: 5.08 Log10
  In vivo kinetics, Copies/ml: 8.17E+04 Copies/ml and 5.79E+05 Copies/ml and 1.02E+05 Copies/ml
  In vivo kinetics, Log10 of Copies/ml: 4.9120 Log10 and 5.7623 Log10 and 4.6527 Log10 and 5.0605 Log10 and 5.0084 Log10
DENV-2 RL strain [4]; 2 mg/kg/d, day 1 p.i.
  In vivo kinetics, Mean of Log10: 2.59 Log10
  In vivo kinetics, Copies/ml: 3.93E+02 Copies/ml
  In vivo kinetics, Log10 of Copies/ml: 2.5940 Log10
DENV-2 RL strain [4]; 2 mg/kg/d, day 2 p.i.
  In vivo kinetics, Mean of Log10: 2.59 Log10
  In vivo kinetics, Copies/ml: 3.93E+02 Copies/ml
  In vivo kinetics, Log10 of Copies/ml: 2.5940 Log10
DENV-2 RL strain [4]; 2 mg/kg/d, day 3 p.i.
  In vivo kinetics, Mean of Log10: 2.77 Log10
  In vivo kinetics, Copies/ml: 3.93E+02 Copies/ml and 6.33E+03 Copies/ml
  In vivo kinetics, Log10 of Copies/ml: 2.5940 Log10 and 3.8013 Log10
DENV-2 RL strain [4]; 2 mg/kg/d, day 4 p.i.
  In vivo kinetics, Mean of Log10: 2.59 Log10
